`Cc1cc(Cl)ccc1CNC(=O)CCc1oc(-n2cnc3ccccc32)nc1-c1ccc(Cl)cc1` [Example 178, 3-[2-(1H-benzimidazol-1-yl)-4-(4-chlorophenyl)-5-oxazolyl]-N-(4-chloro-2-methylbenzyl)propionamide] gave a melting point of 200 to 201 °C. Compound `COc1ccc(OC)c(CNC(=O)CCc2oc(-n3cnc4ccccc43)nc2-c2ccc(Cl)cc2)c1` [Example 179, 3-[2-(1H-benzimidazol-1-yl)-4-(4-chlorophenyl)-5-oxazolyl]-N-(2,5-dimethoxybenzyl)propionamide] has a melting point of 193 to 194 °C. For `COc1cc(CNC(=O)CCc2oc(-n3cnc4ccccc43)nc2-c2ccc(Cl)cc2)cc(OC)c1` [Example 180, 3-[2-(1H-benzimidazol-1-yl)-4-(4-chlorophenyl)-5-oxazolyl]-N-(3,5-dimethoxybenzyl)propionamide], the melting point was 198 to 200 °C. In the case of `Cc1ccc(C)c(CNC(=O)CCc2oc(-n3cnc4ccccc43)nc2-c2ccc(Cl)cc2)c1` [Example 181, 3-[2-(1H-benzimidazol-1-yl)-4-(4-chlorophenyl)-5-oxazolyl]-N-(2,5-dimethylbenzyl)propionamide], the melting point is reported as 218 to 219 °C. Compound `O=C(CCc1oc(-n2cnc3ccccc32)nc1-c1ccc(Cl)cc1)N1CCC(O)CC1` [Example 192, 1-{3-[2-(1H-benzimidazol-1-yl)-4-(4-chlorophenyl)-5-oxazolyl]propanoyl}-4-piperidinol] has a melting point of 182 to 183 °C. Work on `CN1CCC(N(C)C(=O)CCc2oc(-n3cnc4ccccc43)nc2-c2ccc(Cl)cc2)CC1` [Example 193, 3-[2-(1H-benzimidazol-1-yl)-4-(4-chlorophenyl)-5-oxazolyl]-N-methyl-N-(1-methyl-4-piperidinyl)propionamide] yielded a melting point of 133 to 134 °C. `O=C(CCc1oc(-n2cnc3ccccc32)nc1-c1ccc(Cl)cc1)N1CCS(=O)(=O)CC1` [Example 194, 4-{3-[2-(1H-benzimidazol-1-yl)-4-(4-chlorophenyl)-5-oxazolyl]propanoyl}thiomorpholine-1,1-dioxide] showed a melting point of 227 to 228 °C. Compound `O=C(CCCc1oc(-n2cnc3ccccc32)nc1-c1ccc(Cl)cc1)NCc1cc(Br)ccc1F` [Example 195, 4-[2-(1H-benzimidazol-1-yl)-4-(4-chlorophenyl)-5-oxazolyl]-N-(5-bromo-2-fluorobenzyl)butanamide] has a melting point of 196 to 198 °C. Work on `Cc1ccc(CNC(=O)CCCc2oc(-n3cnc4ccccc43)nc2-c2ccc(Cl)cc2)cc1` [Example 196, 4-[2-(1H-benzimidazol-1-yl)-4-(4-chlorophenyl)-5-oxazolyl]-N-(4-methylbenzyl)butanamide] yielded a melting point of 190 to 191 °C. `O=C(CCc1sc(-n2cnc3ccccc32)nc1-c1ccc(Cl)cc1)NCc1cc(Br)ccc1F` [Example 202, 3-[2-(1H-benzimidazol-1-yl)-4-(4-chlorophenyl)-5-thiazolyl]-N-(5-bromo-2-fluorobenzyl)propionamide] showed a melting point of 188 to 189 °C. In the case of `Cc1ccc(CNC(=O)CCc2sc(-n3cnc4ccccc43)nc2-c2ccc(Cl)cc2)cc1` [Example 203, 3-[2-(1H-benzimidazol-1-yl)-4-(4-chlorophenyl)-5-thiazolyl]-N-(4-methylbenzyl)propionamide], the melting point is reported as 191 to 192 °C. `O=C(CCCc1sc(-n2cnc3ccccc32)nc1-c1ccc(Cl)cc1)NCc1cc(Br)ccc1F` [Example 216, 4-[2-(1H-benzimidazol-1-yl)-4-(4-chlorophenyl)-5-thiazolyl]-N-(5-bromo-2-fluorobenzyl)butanamide] showed a melting point of 160 to 161 °C. `Cc1ccc(CNC(=O)CCCc2sc(-n3cnc4ccccc43)nc2-c2ccc(Cl)cc2)cc1` [Example 217, 4-[2-(1H-benzimidazol-1-yl)-4-(4-chlorophenyl)-5-thiazolyl]-N-(4-methylbenzyl)butanamide] showed a melting point of 138 to 139 °C. Compound `N#CCc1ccc(NC(=O)Cc2sc(-n3cnc4ccccc43)nc2-c2ccc(Cl)cc2)cc1` [Example 219, 2-[2-(1H-benzimidazol-1-yl)-4-(4-chlorophenyl)-5-thiazolyl]-N-[4-(cyanomethyl)phenyl]acetamide] has a melting point of 245 to 246 °C. `N#CCc1ccc(NC(=O)CCCCc2sc(-n3cnc4ccccc43)nc2-c2ccc(Cl)cc2)cc1` [Example 223, 5-[2-(1H-benzimidazol-1-yl)-4-(4-chlorophenyl)-5-thiazolyl]-N-[4-(cyanomethyl)phenyl]pentanamide] showed a melting point of 187 to 188 °C. `Nc1nc(-c2ccc(Cl)cc2)c(CCC(=O)N2CCS(=O)(=O)CC2)s1` [Example 227B, 4-{3-[2-amino-4-(4-chlorophenyl)-5-thiazolyl]propanoyl}thiomorpholine-1,1-dioxide] gave a melting point of 220 to 222 °C. Compound `Cc1nc(-c2ccc(Cl)cc2)c(CCC(=O)N2CCS(=O)(=O)CC2)o1` [Example 241, 4-{3-[4-(4-chlorophenyl)-2-methyl-5-oxazolyl]propanoyl}thiomorpholine-1,1-dioxide] has a melting point of 124 to 125 °C. Compound `O=C(CCc1oc(-n2cnc3ccccc32)nc1-c1ccccc1)N1CCC(O)CC1` [Example 247, 1-{3-[2-(1H-benzoimidazol-1-yl)-4-phenyl-5-oxazolyl]propanoyl}-4-piperidinol] has a melting point of 157 to 158 °C. `COc1ccc(-c2nc(-n3cnc4ccccc43)oc2CCC(=O)N2CCC(O)CC2)cc1` [Example 248, 1-(3-[2-(1H-benzoimidazol-1-yl)-4-(4-methoxyphenyl)-5-oxazolyl]propanoyl)-4-piperidinol] showed a melting point of 161 to 162 °C. `COc1ccc(-c2nc(-n3cnc4ccccc43)oc2CCC(=O)N2CCN(CC3CCCN(C)C3)CC2)cc1` (centres unmarked) [Example 252, 1-{3-[2-(1H-benzoimidazol-1-yl)-4-(4-methoxyphenyl)-5-oxazolyl]propanoyl}-4-[(1-methylpiperidin-3-yl)methyl]piperazine] gave a melting point of 151 to 152 °C. `O=C(CCc1oc(-n2cnc3ccccc32)nc1-c1cccc(Cl)c1)N1CCC(O)CC1` [Example 257, 1-{3-[2-(1H-benzoimidazol-1-yl)-4-(3-chlorophenyl)-5-oxazolyl]propanoyl}-4-piperidinol] gave a melting point of 97 to 98 °C. With `O=C(CCc1oc(-n2cnc3ccccc32)nc1-c1ccc(F)cc1)N1CCC(O)CC1` [Example 258, 1-{3-[2-(1H-benzoimidazol-1-yl)-4-(4-fluorophenyl)-5-oxazolyl]propanoyl}-4-piperidinol] the melting point was 158 to 159 °C. For `O=C(CCc1oc(-n2cnc3ccccc32)nc1-c1ccc(Cl)cc1)N1CCSC1` [Example 259, 3-{3-[2-(1H-benzoimidazol-1-yl)-4-(4-chlorophenyl)-5-oxazolyl]propanoyl}thiazolidine], the melting point was 125 to 126 °C. Work on `O=C(CCc1oc(-n2cnc3ccccc32)nc1-c1ccc(Cl)cc1)N1CCCC(O)C1` (centres unmarked) [Example 300, 1-{3-[2-(1H-benzoimidazol-1-yl)-4-(4-chlorophenyl)-5-oxazolyl]propanoyl}-3-piperidinol] yielded a melting point of 104 to 105 °C. For `CCS(=O)(=O)CCNC(=O)CCc1oc(-n2cnc3ccccc32)nc1-c1ccc(Cl)cc1` [Example 301, 3-[2-(1H-benzoimidazol-1-yl)-4-(4-chlorophenyl)-5-oxazolyl]-N-[2-(ethylsulfonyl)ethyl]propanamide], the melting point was 182 to 183 °C. For `CS(=O)(=O)CCNC(=O)CCc1oc(-n2cnc3ccccc32)nc1-c1ccc(Cl)cc1` [Example 302, 3-[2-(1H-benzoimidazol-1-yl)-4-(4-chlorophenyl)-5-oxazolyl]-N-[2-(methylsulfonyl)ethyl]propanamide], the melting point was 194 to 195 °C. Compound `CN(CCS(C)(=O)=O)C(=O)CCc1oc(-n2cnc3ccccc32)nc1-c1ccc(Cl)cc1` [Example 303, 3-[2-(1H-benzoimidazol-1-yl)-4-(4-chlorophenyl)-5-oxazolyl]-N-[2-(methylsulfonyl)ethyl]-N-methylpropanamide] has a melting point of 141 to 142 °C. `O=C(CCc1oc(-n2cnc3ccccc32)nc1-c1ccc(Cl)cc1)NC1CCC(O)CC1` (centres unmarked) [Example 304, 3-[2-(1H-benzoimidazol-1-yl)-4-(4-chlorophenyl)-5-oxazolyl]-N-(4-hydroxycyclohexyl)propanamide] gave a melting point of 204 to 206 °C. `O=C(CCc1oc(-n2cnc3ccccc32)nc1-c1ccc(Cl)cc1)N1CCC(CO)CC1` [Example 305, (1-{3-[2-(1H-benzoimidazol-1-yl)-4-(4-chlorophenyl)-5-oxazolyl]propanoyl}-4-piperidinyl)methanol] gave a melting point of 101 to 102 °C. `CS(=O)(=O)C1CCN(C(=O)CCc2oc(-n3cnc4ccccc43)nc2-c2ccc(Cl)cc2)CC1` [Example 307, 1-{3-[2-(1H-benzoimidazol-1-yl)-4-(4-chlorophenyl)-5-oxazolyl]propanoyl}-4-(methylsulfonyl)piperidine] showed a melting point of 215 to 216 °C. `O=C(CCc1oc(-n2cnc3ccccc32)nc1-c1ccc(Cl)cc1)N1CCS(=O)(=O)C1` [Example 344, 3-{3-[2-(1H-benzoimidazol-1-yl)-4-(4-chlorophenyl)-5-oxazolyl]propanoyl}thiazolidine-1,1-dioxide] showed a melting point of 136 to 137 °C. Work on `Cc1cc(C)n(-c2nc(-c3ccc(Cl)cc3)c(CCC(=O)N3CCN(CC4CCN(C)CC4)CC3)o2)n1` [Example 347, 1-{3-[4-(4-chlorophenyl)-2-(3,5-dimethyl-1H-pyrazol-1-yl)-5-oxazolyl]propanoyl}-4-[(1-methyl-4-piperidinyl)methyl]piperazine] yielded a melting point of 126 to 127 °C.
